Results as given in the supplement of paper PMC13207355.

Assays:
Details in all cases: exposure time: 72 h
E13 [1] = patient-derived glioblastoma stem cells of classical subtype; assay: surviving fraction (nuclei count normalised to DMSO); higher = more cells surviving (less toxic)
E21 [2] = patient-derived glioblastoma stem cells of mesenchymal subtype; assay: as above
E28 [3] = patient-derived glioblastoma stem cells of classical subtype; assay: as above
E31 [4] = patient-derived glioblastoma stem cells of proneural subtype; assay: as above
E34 [5] = patient-derived glioblastoma stem cells of proneural subtype; assay: as above
E57 [6] = patient-derived glioblastoma stem cells of mesenchymal subtype; assay: as above
FT3469 [7] = normal neural stem cell line; assay: as above
E13 [8] = assay: phenotypic distance (Euclidean, principal components) from DMSO controls (arbitrary units); higher = stronger morphological change
E21 [9] = assay: as above
E28 [10] = assay: as above
E31 [11] = assay: as above
E34 [12] = assay: as above
E57 [13] = assay: as above
FT3469 [14] = assay: as above
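For phenotypic distance (Euclidean, principal components) from DMSO controls in this document: cell Painting imaging in 384-well plates, CellProfiler features reduced to at least 20 principal components, Euclidean distance versus same-plate DMSO vehicle wells (0.1% v/v), median over six images per well.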
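For surviving fraction (nuclei count normalised to DMSO) in this document: nuclei counted by high-content imaging of Hoechst-stained cells in laminin-coated 384-well plates, relative to 0.1% DMSO vehicle wells, with staurosporine as cell-death control.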

CC[n+]1c(/C=C/C=C2/N(C)c3ccccc3C2(C)C)sc2ccccc21
Details	phenotypic distance	surviving fraction
E13 [1], 4.1 nM	–	0.616
E13 [1], 12.3 nM	–	0.567
E13 [1], 37 nM	–	0.47
E13 [1], 111.1 nM	–	0.362
E13 [1], 333.3 nM	–	0.403
E13 [1], 1000 nM	–	0.361
E13 [1], 3000 nM	–	0.381
E13 [8], 4.1 nM	1.39	–
E13 [8], 12.3 nM	1.38	–
E13 [8], 37 nM	2.78	–
E13 [8], 111.1 nM	3.54	–
E13 [8], 333.3 nM	3.71	–
E13 [8], 1000 nM	3.71	–
E13 [8], 3000 nM	3.71	–
E21 [2], 4.1 nM	–	0.792
E21 [2], 12.3 nM	–	0.825
E21 [2], 37 nM	–	0.652
E21 [2], 111.1 nM	–	0.54
E21 [2], 333.3 nM	–	0.471
E21 [2], 1000 nM	–	0.462
E21 [2], 3000 nM	–	0.445
E21 [9], 4.1 nM	1.08	–
E21 [9], 12.3 nM	1.6	–
E21 [9], 37 nM	2.31	–
E21 [9], 111.1 nM	3.28	–
E21 [9], 333.3 nM	3.93	–
E21 [9], 1000 nM	3.44	–
E21 [9], 3000 nM	2.74	–
E28 [3], 4.1 nM	–	0.916
E28 [3], 12.3 nM	–	0.86
E28 [3], 37 nM	–	0.707
E28 [3], 111.1 nM	–	0.596
E28 [3], 333.3 nM	–	0.429
E28 [3], 1000 nM	–	0.42
E28 [3], 3000 nM	–	0.307
E28 [10], 4.1 nM	0.748	–
E28 [10], 12.3 nM	0.775	–
E28 [10], 37 nM	1.34	–
E28 [10], 111.1 nM	1.61	–
E28 [10], 333.3 nM	3.13	–
E28 [10], 1000 nM	2.8	–
E28 [10], 3000 nM	5.04	–
E31 [4], 4.1 nM	–	1.03
E31 [4], 12.3 nM	–	0.703
E31 [4], 37 nM	–	0.714
E31 [4], 111.1 nM	–	0.446
E31 [4], 333.3 nM	–	0.21
E31 [4], 1000 nM	–	0.229
E31 [4], 3000 nM	–	0.277
E31 [11], 4.1 nM	2.01	–
E31 [11], 12.3 nM	1.15	–
E31 [11], 37 nM	1.51	–
E31 [11], 111.1 nM	1.16	–
E31 [11], 333.3 nM	3.28	–
E31 [11], 1000 nM	4.43	–
E31 [11], 3000 nM	3.86	–
E34 [5], 4.1 nM	–	0.967
E34 [5], 12.3 nM	–	0.902
E34 [5], 37 nM	–	0.834
E34 [5], 111.1 nM	–	0.572
E34 [5], 333.3 nM	–	0.552
E34 [5], 1000 nM	–	0.591
E34 [5], 3000 nM	–	0.516
E34 [12], 4.1 nM	1.1	–
E34 [12], 12.3 nM	1.65	–
E34 [12], 37 nM	1.13	–
E34 [12], 111.1 nM	2.37	–
E34 [12], 333.3 nM	2.3	–
E34 [12], 1000 nM	2.55	–
E34 [12], 3000 nM	3.35	–
E57 [6], 4.1 nM	–	0.878
E57 [6], 12.3 nM	–	0.881
E57 [6], 37 nM	–	0.793
E57 [6], 111.1 nM	–	0.614
E57 [6], 333.3 nM	–	0.337
E57 [6], 1000 nM	–	0.324
E57 [6], 3000 nM	–	0.294
E57 [13], 4.1 nM	1.08	–
E57 [13], 12.3 nM	0.887	–
E57 [13], 37 nM	1.53	–
E57 [13], 111.1 nM	2.52	–
E57 [13], 333.3 nM	6.37	–
E57 [13], 1000 nM	5.7	–
E57 [13], 3000 nM	7.93	–
FT3469 [7], 4.1 nM	–	0.855
FT3469 [7], 12.3 nM	–	0.668
FT3469 [7], 37 nM	–	0.696
FT3469 [7], 111.1 nM	–	0.627
FT3469 [7], 333.3 nM	–	0.645
FT3469 [7], 1000 nM	–	0.622
FT3469 [7], 3000 nM	–	0.578
FT3469 [14], 4.1 nM	1.31	–
FT3469 [14], 12.3 nM	1.56	–
FT3469 [14], 37 nM	1.69	–
FT3469 [14], 111.1 nM	1.86	–
FT3469 [14], 333.3 nM	1.62	–
FT3469 [14], 1000 nM	3.78	–
FT3469 [14], 3000 nM	3.43	–
